Measured values reported in patent publication US10000450B2, “N,N-substituted 3-aminopyrrolidine compounds useful as monoamines reuptake inhibitors” (OTSUKA PHARMACEUTICAL CO., LTD., priority 2005, dated 2018).
Where a name gives a salt, the structure may show the parent alone.

Experiments:
Format in all cases: biochemical
[1] = molecular target: T1, Norepinephrine (NE) uptake into rat brain synaptosome (hippocampus) (Rattus norvegicus, UniProt Q63380); test: Inhibitory activity on norepinephrine (NE) uptake into rat brain synaptosome; conditions: tritium-labeled NE 12 nM uptake, 10 min at 37° C., read-out: 50% inhibitory concentration
T1 construct: used as crude synaptosome fraction; from tissue; host or cells: rat (male Wistar) hippocampus, crude synaptosome fraction
Description: Pharmacological Test 2 Evaluation of Inhibitory Activity of Test Compound on Norepinephrine (NE) Uptake into Rat Brain Synaptosome
(§1) Male Wistar rats were decapitated and the brains were removed and the hippocampi were dissected. The separated hippocampi were homogenized in 20 volumes as weight of 0.32 M sucrose solution by a Potter-type homogenizer. The homogenate was centrifuged at 1000 g at 4° C. for 10 minutes, and the supernatant was then centrifuged at 20000 g at 4° C. for 20 minutes. The pellet was resuspended in incubation buffer (20 mM HEPES buffer (pH 7.4)) containing 10 mM glucose, 145 mM sodium chloride, 4.5 mM potassium chloride, 1.2 mM magnesium chloride, and 1.5 mM calcium chloride) and used as crude synaptosome fraction.
The uptake reaction mixture was suspended in final volume of 200 μl containing pargyline (final concentration of 10 μM) and sodium ascorbate (final concentration of 0.2 mg/ml) in each well of 96-well-round-bottom-plate.
(§2) Solvent, unlabeled NE, and serial diluted test compounds were added to each well, and synaptosome fraction of 1/10 volume of the final volume were added. After 10 minutes preincubation at 37° C., the uptake was initiated by the addition of tritium-labeled NE solution (final concentration of 12 nM) at 37° C. The uptake was stopped after 10 minutes by filtration under vacuum through a 96-well glass fiber filter plate. After washing the filter with cold physiological saline and drying up, Microscint-0 (Perkin-Elmer) was added, and remained radioactivity on the filter was measured.
(§3) The total uptake activity with only solvent was determined as 100%, and the nonspecific uptake activity with unlabeled NE (final concentration of 10 μM) was determined as 0%. The 50% inhibitory concentrations were calculated based on the concentrations of the test compounds and their inhibitory activities.

[2] = molecular target: T2, Dopamine (DA) uptake into rat brain synaptosome (striatum) (Rattus norvegicus, UniProt P23977); test: Inhibitory activity on dopamine (DA) uptake into rat brain synaptosome; conditions: tritium labeled DA 2 nM uptake, 10 min at 37° C., read-out: 50% inhibitory concentration
T2 construct: used as crude synaptosome fraction; from tissue; host or cells: rat (male Wistar) striatum, crude synaptosome fraction
Description: Pharmacological Test 3 Evaluation of Inhibitory Activity of Test Compound on Dopamine (DA) into Rat Brain Synaptosome
as §1, with “striata” for “hippocampi”
(§4) The uptake reaction mixture was suspended in a final volume of 200 μl containing pargyline (final concentration of 10 μM) and sodium ascorbate (final concentration of 0.2 mg/ml) in each well of 96-well-round-bottom-plate.
as §2, with “unlabeled DA,” for “unlabeled NE,”, “added in” for “added to”, “After 10-min” for “After 10 minutes”, “of tritium labeled DA” for “of tritium-labeled NE”, “of 2” for “of 12”, “was added” for “was added,”
as §3, with “The” for “The total”, “DA” for “NE”

[3] = molecular target: T3, Serotonin (5-HT) uptake into rat brain synaptosome (frontal cortex) (Rattus norvegicus, UniProt P31652); test: Inhibitory activity on serotonin (5-HT) uptake into rat brain synaptosome; conditions: tritium-labeled 5-HT 8 nM uptake, 10 min at 37° C., read-out: 50% inhibittory concentration
T3 construct: used as crude synaptosome fractions; from tissue; host or cells: rat (male Wistar) frontal cortex, crude synaptosome fraction
Description: Pharmacological Test 1 Evaluation of Inhibitory Activity of Test Compound on Serotonin (5-HT) Uptake into Rat Brain Synaptosome
as §1, with “frontal cortices” for “hippocampi”, “fractions.” for “fraction.”
as §4
Solvent, unlabeled 5-HT, and serial diluted test compounds were added in each well, and synaptosome fraction of 1/10 volume of the final volume were added. After a 10 min preincubation at 37° C., the uptake was initiated by the addition of tritium-labeled 5-HT solution (final concentration of 8 nM) at 37° C. The uptake was stopped after 10 minutes by filtration under vacuum through a 96-well glass fiber filter plate. After washing the filter with cold physiological saline and drying up, Microscint-O (Perkin-Elmer) was added, and remained radioactivity on the filter was measured.
as §3, with “5-HT” for “NE”

T2 sequence (P23977 whole entry): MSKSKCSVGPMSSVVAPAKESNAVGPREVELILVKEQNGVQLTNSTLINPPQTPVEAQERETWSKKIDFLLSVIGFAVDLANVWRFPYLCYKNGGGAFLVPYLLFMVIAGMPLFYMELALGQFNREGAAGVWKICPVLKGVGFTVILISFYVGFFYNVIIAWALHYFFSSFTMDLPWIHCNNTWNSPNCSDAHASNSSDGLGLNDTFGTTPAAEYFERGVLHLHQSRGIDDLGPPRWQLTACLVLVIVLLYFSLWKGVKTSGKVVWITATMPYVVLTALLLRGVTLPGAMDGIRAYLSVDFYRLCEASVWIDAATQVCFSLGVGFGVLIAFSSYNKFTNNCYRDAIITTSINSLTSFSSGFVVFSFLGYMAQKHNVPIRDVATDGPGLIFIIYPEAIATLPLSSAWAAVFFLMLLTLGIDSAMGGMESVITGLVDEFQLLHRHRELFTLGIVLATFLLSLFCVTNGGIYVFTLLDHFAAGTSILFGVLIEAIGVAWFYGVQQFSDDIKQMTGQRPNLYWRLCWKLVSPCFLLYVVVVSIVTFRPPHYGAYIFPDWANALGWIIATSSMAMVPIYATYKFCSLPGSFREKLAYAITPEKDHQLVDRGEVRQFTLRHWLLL
T3 sequence (P31652 whole entry): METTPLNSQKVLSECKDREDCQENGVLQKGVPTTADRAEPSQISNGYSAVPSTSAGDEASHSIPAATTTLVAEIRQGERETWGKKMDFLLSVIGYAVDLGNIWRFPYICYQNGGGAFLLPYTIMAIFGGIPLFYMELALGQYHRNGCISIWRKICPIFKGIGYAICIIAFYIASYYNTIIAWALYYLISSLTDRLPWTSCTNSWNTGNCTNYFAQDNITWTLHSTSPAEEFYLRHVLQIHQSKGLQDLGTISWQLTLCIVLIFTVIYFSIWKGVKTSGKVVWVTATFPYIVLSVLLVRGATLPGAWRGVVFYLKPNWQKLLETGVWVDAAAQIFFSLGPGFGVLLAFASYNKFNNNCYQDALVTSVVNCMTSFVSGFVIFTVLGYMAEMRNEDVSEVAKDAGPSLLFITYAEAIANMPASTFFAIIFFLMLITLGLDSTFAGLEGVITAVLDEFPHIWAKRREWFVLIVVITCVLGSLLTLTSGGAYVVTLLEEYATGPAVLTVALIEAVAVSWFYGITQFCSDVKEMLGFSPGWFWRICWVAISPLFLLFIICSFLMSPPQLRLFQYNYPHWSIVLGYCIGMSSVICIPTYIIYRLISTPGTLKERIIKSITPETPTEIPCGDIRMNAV
T1 sequence (Q63380 1-617): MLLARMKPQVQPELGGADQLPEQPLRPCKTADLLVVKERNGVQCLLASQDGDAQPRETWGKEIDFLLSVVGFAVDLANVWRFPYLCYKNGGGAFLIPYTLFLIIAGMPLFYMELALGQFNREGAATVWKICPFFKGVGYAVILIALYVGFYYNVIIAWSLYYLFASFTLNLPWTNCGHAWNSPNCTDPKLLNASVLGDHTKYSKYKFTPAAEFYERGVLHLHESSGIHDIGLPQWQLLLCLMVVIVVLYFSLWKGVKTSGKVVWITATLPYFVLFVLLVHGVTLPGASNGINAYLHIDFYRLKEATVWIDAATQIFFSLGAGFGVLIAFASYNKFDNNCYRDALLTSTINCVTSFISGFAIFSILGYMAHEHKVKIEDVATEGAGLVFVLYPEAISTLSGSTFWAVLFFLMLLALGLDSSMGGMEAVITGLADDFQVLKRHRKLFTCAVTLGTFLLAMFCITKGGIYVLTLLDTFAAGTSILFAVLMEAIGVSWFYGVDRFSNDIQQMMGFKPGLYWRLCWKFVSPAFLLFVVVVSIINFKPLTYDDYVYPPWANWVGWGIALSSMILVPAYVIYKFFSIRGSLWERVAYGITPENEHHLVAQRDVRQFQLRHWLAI

Compound	IC50 [1]	IC50 [2]	IC50 [3]
Cn1ncc2ccc(N(c3ccc(F)c(Cl)c3)[C@H]3CCNC3)cc21 [Example 990]	0.8 nM	26 nM	
c1ccc2cc(N(c3ccsc3)[C@H]3CCNC3)ccc2c1 [Example 1000]	0.4 nM		
Cc1cc(N(c2ccccc2)[C@H]2CCNC2)ccc1F [Example 46]		9.3 nM	
Fc1ccc(N(c2ccc(Cl)c(Cl)c2)[C@H]2CCNC2)nc1 [Example 961]	0.7 nM	9.6 nM	2.8 nM
c1cc(N(c2ccc3sccc3c2)[C@H]2CCNC2)cs1 [Example 1002]	0.1 nM	32.9 nM	
Cc1cc(N(c2cncc(F)c2)[C@H]2CCNC2)ccc1F [Example 895]	0.5 nM	38 nM	3 nM
COc1cccc(N(c2ccc(F)c(Cl)c2)[C@H]2CCNC2)n1 [Example 223]	0.2 nM		
Fc1ccc(N(c2ccc(Cl)nc2)[C@H]2CCNC2)cc1Cl [Example 244]	0.5 nM		
Fc1ccc(N(c2ccccn2)[C@H]2CCNC2)cc1Cl [Example 154]	0.2 nM	9.2 nM	0.8 nM
Cc1ccc(N(c2ccccc2)[C@H]2CCNC2)cc1 [Example 22]	2.2 nM		
Fc1cncc(N(c2ccc(F)c(Cl)c2)[C@H]2CCNC2)c1 [Example 894]	0.3 nM	9.4 nM	2.6 nM
Fc1ccc(N(c2ccccc2)[C@H]2CCNC2)cc1Cl [Example 44]	0.4 nM	8.7 nM	
c1cncc(N(c2ccc3sccc3c2)[C@H]2CCNC2)c1 [Example 294]		24 nM	
Fc1ccc(N(c2ccc3cnsc3c2)[C@H]2CCNC2)cc1 [Example 901]			0.7 nM
CCN1CCN(c2ccc(N(c3ccc(F)c(Cl)c3)[C@H]3CCNC3)nc2)CC1 [Example 201]		4.3 nM	
Fc1ccc(N(c2ccsc2)[C@H]2CCNC2)cc1Cl [Example 278]	0.3 nM	34.7 nM	2.2 nM
Cc1cc2ccc(N(c3ccccc3)[C@H]3CCNC3)cc2s1 [Example 903]	0.7 nM		1.2 nM
Fc1ccc(N(c2ccc3ncsc3c2)[C@H]2CCNC2)cc1Cl [Example 989]	0.3 nM	5.8 nM	0.6 nM
c1ccc(N(c2ccc3sccc3c2)[C@H]2CCNC2)cc1 [Example 116]	0.1 nM	8.9 nM	
Fc1ccc(N(c2ccc3ccsc3n2)[C@H]2CCNC2)cc1 [Example 899]			0.7 nM
Clc1ccc(N(c2cccnc2)[C@H]2CCNC2)cc1Cl [Example 242]	0.2 nM		
c1cc(N(c2ccc3ccsc3c2)[C@H]2CCNC2)cs1 [Example 1001]	0.1 nM	16.4 nM	
[O-][n+]1cccc(N(c2ccc(F)c(Cl)c2)[C@H]2CCNC2)c1 [Example 896]	0.9 nM		2.5 nM
Clc1ccc(N(c2ccccn2)[C@H]2CCNC2)cc1Cl [Example 188]	0.1 nM		
Cc1ccc(N(c2cccc(F)c2)[C@H]2CCNC2)cc1Cl [Example 98]	0.3 nM		
Clc1ccc(N(c2ccncc2)[C@H]2CCNC2)cc1Cl [Example 273]		32.9 nM	

Compound	IC50 [1]	IC50 [2]	IC50 [3]
Clc1ccc(N(c2cnccn2)[C@H]2CCNC2)cc1Cl [Example 963]	0.8 nM	47.1 nM	1 nM
CSc1ccc(N(c2ccccc2)[C@H]2CCNC2)cc1 [Example 19]			0.7 nM
Cc1cc(N(c2cnc3ccccc3c2)[C@H]2CCNC2)ccc1F [Example 151]			0.8 nM
Clc1ccc(N(c2cccnc2)[C@H]2CCNC2)cc1Cl [Example 256]	0.1 nM		
Fc1ccc(N(c2nccs2)[C@H]2CCNC2)cc1Cl [Example 131]	0.2 nM		0.6 nM
Fc1cncc(N(c2ccc3sccc3c2)[C@H]2CCNC2)c1 [Example 951]	0.5 nM	29.8 nM	
Fc1ccc(N(c2ccc(N3CCNCC3)cn2)[C@H]2CCNC2)cc1Cl [Example 200]		3.8 nM	
c1cc2ccc(N(c3ccc4ccsc4c3)[C@H]3CCNC3)cc2s1 [Example 300]		9.6 nM	
O=C1CCc2ccc(N(c3ccc(F)cc3)[C@H]3CCNC3)cc2N1 [Example 917]			0.7 nM
Clc1ccc(N(c2ccccc2)C2CCNC2)cc1Cl (stereo not drawn) [Example 1, (3,4-dichlorophenyl)phenylpyrrolidin-3-ylamine dihydrochloride]	0.6 nM		
N#Cc1ccc(N(c2ccc(F)c(Cl)c2)[C@H]2CCNC2)cn1 [Example 268]		6.5 nM	0.8 nM
N#Cc1ccc(N(c2ccc(Cl)c(Cl)c2)[C@H]2CCNC2)cn1 [Example 270]		8.2 nM	
Fc1ccc(N(c2ccc3cnsc3c2)[C@H]2CCNC2)cc1Cl [Example 930]	1 nM	6.8 nM	0.8 nM
Cn1c(=O)ccc2cc(N(c3ccc(F)c(Cl)c3)[C@H]3CCNC3)ccc21 [Example 912]		30.2 nM	1 nM
Fc1ccc(N(CCCCOc2ccccn2)[C@H]2CCNC2)cc1Cl [Example 5, (3-chloro-4-fluorophenyl)-[4-(pyridin-2-yloxy)butyl]-(S)-pyrrolidin-3-ylamine difumarate]			1.6 nM
Fc1ccc(N(c2ccc3ccsc3c2)[C@H]2CCNC2)cc1 [Example 114]	0.4 nM	32.5 nM	0.8 nM
Fc1ccc(N(C2CCCC2)[C@H]2CCNC2)cc1Cl [Example 306]	0.8 nM		1.4 nM
Fc1ccc(N(c2cnc3ccccc3c2)[C@H]2CCNC2)cc1Cl [Example 149]			1.2 nM
c1cc2cc(N(c3ccc4sccc4c3)[C@H]3CCNC3)ccc2s1 [Example 299]		48.6 nM	
c1ccc(N(c2ccc3sccc3n2)[C@H]2CCNC2)cc1 [Example 934]			1.8 nM
c1cncc(N(c2ccc3ccsc3c2)[C@H]2CCNC2)c1 [Example 289]	0.1 nM	30.6 nM	
N#Cc1ccc(N(c2ccc(F)c(Cl)c2)[C@H]2CCNC2)cc1 [Example 73]		9 nM	0.6 nM
N#Cc1ccc(-c2cncc(N(c3ccc(F)c(Cl)c3)[C@H]3CCNC3)c2)cc1 [Example 272]		30 nM	
c1ccc(N(c2ccc3cnsc3c2)[C@H]2CCNC2)cc1 [Example 900]	0.6 nM		1.5 nM
Fc1ccc(N(c2ccccc2)[C@H]2CCNC2)cc1 [Example 20]	0.8 nM		
